Where only a bound is given, the exact number is not on record here.

Data set [1] in a line: Solubility of the compound at pH 7. To be noted: buffer. The data set is classed as physicochemical.
A short description of data set [2]: Solubility of the compound at pH 2. The data set is classed as physicochemical. To be noted: buffer.

For `O=C(Cn1c(=O)[nH]c2ncc(-c3cccc(C(F)(F)F)c3)cc21)NC1CC1`, the solubility in data set [1] and in data set [2] was < 4 µM in each case.

Broadly, the solubility is the concentration that dissolves in the medium under given conditions.

The record behind these values is ChEMBL document CHEMBL4339196, “1H-Pyrrolo[3,2-b]pyridine GluN2B-Selective Negative Allosteric Modulators” (ACS Med Chem Lett, 2019).
